The text below walks through data of US6004933A, “Cysteine protease inhibitors” (Cortech Inc., priority 1998, dated 1999).

Assay type in all cases: biochemical
In one experiment the target is T1, cathepsin L (Homo sapiens, UniProt P07711).
T1 construct: purchased Athens Research and Technology Inc. (Athens,Ga.)
Briefly: Cathepsin L inhibition, fluorometric assay with Cbz-Phe-Arg-NHMec. The note with it: human enzyme; IC50 at substrate << Km taken as Ki; pH 5.5. From the text:
(§1) The enzyme cathepsin B (E.C. 3.4.22.01) was obtained from Calbiochem (San Diego, Calif.); cathepsin L (E.C. 3.4.22.15) from Athens Research and Technology Inc. (Athens,Ga.); and papain (E.C. 3.4.22.02) from Sigma (St. Louis, Mo.).
(§2) Cbz-Phe-Arg-NHMec (--NHMec: 7-(4-methyl)coumarylamide) was obtained from BachemCalifornia, Inc. (Torrance, Calif.). All other reagents were obtained from Sigma.
(§3) The enzymes used in enzyme assays with methylcoumarylamides were activated as described elsewhere (Barret, et al., Methods Enzymol. 80:535-561 (1981); Bromme, et al., Biochem. J, 264: 475-481 (1989). Cathepsin L was assayed in 0.34 M sodium acetate buffer, pH 5.5, containing 0.1% (v/v) Brij 35, 2.5 mM dithiothreitol (DTT) and 5 mM Na2 -EDTA. Cathepsin B was assayed under the same conditions, except that the buffer was adjusted to pH 6. Papain was assayed in 50 mM sodium phosphate buffer, pH 6.8, containing 0.2 M sodium chloride, 2 mM DTT, 1 mM Na2 -EDTA and 0.025% Brij 35 (v/v).
(§4) Initial velocities of enzymatic reactions were measured spectrofluorometrically (λex =370 nm, λem 460 nm) with a Quanta Master QM1 (Photon Technologies International, South Brunswick, N.J.). Stock solutions of the enzymes were diluted into the buffer, equilibrated at room temperature, and preincubated without or with increasing concentrations of inhibitors. The reactions were started by addition of substrate. A total of 4 to 8 inhibitor concentrations were used to determine IC50 values. In all cases the substrate concentrations were much smaller than the Km value, and the IC50 values measured approximated the Ki directly (Cheng, et al., Biochemical Pharmacology, 22:3099-3108 (1973)).

Another experiment deals with T2, papain (Carica papaya, UniProt P00784).
T2 construct: purchased Sigma (St. Louis, Mo.)
T2 sequence (P00784 134-345): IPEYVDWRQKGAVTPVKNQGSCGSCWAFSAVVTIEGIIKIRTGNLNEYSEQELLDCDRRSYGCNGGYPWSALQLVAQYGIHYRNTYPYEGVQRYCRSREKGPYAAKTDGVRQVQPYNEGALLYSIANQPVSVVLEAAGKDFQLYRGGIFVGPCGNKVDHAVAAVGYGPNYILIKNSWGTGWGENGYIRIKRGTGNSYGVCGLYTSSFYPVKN
Description: Papain inhibition, fluorometric assay with Cbz-Phe-Arg-NHMec. The note with it: IC50 at substrate << Km taken as Ki; pH 6.8.
Description: as §1, §2, §3, §4

A further experiment has as its target T3, cathepsin B (Homo sapiens, UniProt P07858).
T3 construct: purchased Calbiochem (San Diego, Calif.)
Description: Cathepsin B inhibition, fluorometric assay with Cbz-Phe-Arg-NHMec. The note with it: human enzyme; IC50 at substrate << Km taken as Ki; pH 6.
Description: as §1, §2, §3, §4

In another experiment the test system is picornain 2A protease. Description: Inhibitory activity against picornain 2A protease. The note with it: at 100 μM.

T1 sequence (P07711 114-333): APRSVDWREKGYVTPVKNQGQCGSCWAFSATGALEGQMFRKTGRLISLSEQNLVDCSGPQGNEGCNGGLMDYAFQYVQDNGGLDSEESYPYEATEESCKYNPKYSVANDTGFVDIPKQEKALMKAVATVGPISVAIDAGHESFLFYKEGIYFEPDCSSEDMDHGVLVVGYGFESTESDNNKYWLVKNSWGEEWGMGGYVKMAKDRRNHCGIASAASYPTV

On to `Cc1cccc(Cc2nnc(C(=O)[C@@H](NC(=O)[C@H](Cc3ccccc3)NC(=O)[C@@H](CC(=O)O)CC(C)C)C(C)C)o2)c1` [CM-0019B, [[2-[5-(3-methylbenzyl)-1,3,4-oxadiazolyl]carbonyl]-2-(S)-methylpropyl]-L-phenylalanamide-(3R)-(isobutyl)succinic acid], for which the Ki at cathepsin L is roughly 100 nM; on papain, 85 nM; on cathepsin B, 3000 nM.

As to `Cc1cccc(Cc2nnc(C(=O)C(NC(=O)[C@@H]3CCCN3C(=O)[C@@H](NC(=O)OCc3ccccc3)C(C)C)C(C)C)o2)c1` (stereo partly drawn) [CE-2072, (Benzyloxycarbonyl)-L-valyl-N-[1-(2-[5-(3-methylbenzyl)-1,3,4-oxadiazolyl]carbonyl)-2-(S)-methylpropyl]-L-prolinamide], the “inhibition of picornain 2A protease” value with picornain 2A protease worked out at 100%.

Regarding `CC(=O)N[C@@H](CC(C)C)C(=O)N[C@@H](CC(C)C)C(=O)NC(CCCN=C(N)N)C(=O)c1noc(C)n1` (stereo partly drawn) [CQ-0008, Acetyl-L-leucyl-N-[1-[3-[5-methyl-1,2,4-oxadiazolyl]carbonyl]-4-(guanidino)-butyl]-L-leucyl amide], the Ki on cathepsin L worked out at 7.13 ± 0.32 nM; at papain, 8590 ± 1860 nM; at cathepsin B, 1240 ± 182 nM.

For the compound “Carboxysuccinyl-L-valyl-N-[1-[3-[5-(3-trifluoromethylbenzyl)- 1,2,4-oxadiazolyl]carbonyl]-2-benzylidone]-L-prolinamide [CE-2061]”, the “inhibition of picornain 2A protease” value in the experiment with picornain 2A protease is given as 100%.

With `CC(=O)N[C@@H](CC(C)C)C(=O)N[C@@H](CC(C)C)C(=O)NC(C)C(=O)c1noc(C)n1` (stereo partly drawn) [CQ-0004, Acetyl-L-leucyl-N-[1-[3-[5-methyl]-1,2,4-oxadiazolyl]carbonyl]-ethyl-L-leucyl amide], the inhibition constant (Ki) on cathepsin L was found to be 61 ± 14 nM; at papain, 25600 ± 5340 nM; on cathepsin B, 27200 ± 1900 nM.

For `CC(C)[C@H](NC(=O)CCC(=O)OC(C)(C)C)C(=O)N1CCC[C@H]1C(=O)NC(Cc1ccccc1)C(=O)c1noc(Cc2cccc(C(F)(F)F)c2)n1` (stereo partly drawn) [CE-2060, (t-butoxysuccinyl)-L-valyl-N-[1-[3-[5-(3-trifluoromethylbenzyl)-1,2,4-oxadiazolyl]carbonyl]-2-benzylidone]-L-prolinamide], in the experiment on picornain 2A protease, the “inhibition of picornain 2A protease” value is reported as 100%.

A word on the Ki: it is a measure of affinity in units of concentration, obtained from inhibition or displacement. The low end stands for higher affinity, the high end for lower affinity.
